From ChEMBL document CHEMBL1129817, “Novel water-soluble analogues retaining potent antitumor activity of RA-VII, a cyclic hexapeptide from Rubia plants” (Bioorg Med Chem Lett, 1997)
Converted amounts (≈) assume the structure as drawn. “And” between values parts separate entries of the source, which are not always exact repeats. Identical values can stand only once.

Legend:
[1] = system: KB; assay: Compound was evaluated for cytotoxicity against human epidermoid carcinoma of nasopharynx (KB) cells; assay type: functional, cell-based
[2] = system: P388; assay: Percentage of the median survival time of P388 leukemic mice (T) at intraperitoneal administration of 6.25 mg/kg dose to that of controls (C); assay type: functional, Mus musculus
[3] = system: P388; assay: Percentage of the median survival time of P388 leukemic mice (T) at intraperitoneal administration of 1.6 mg/kg dose to that of controls (C); assay type: functional, Mus musculus
[4] = system: P388; assay: Percentage of the median survival time of P388 leukemic mice (T) at intraperitoneal administration of 0.4 mg/kg dose to that of controls (C); assay type: functional, Mus musculus
[5] = system: KATO III stomach cancer cell line; assay: Compound was evaluated for cytotoxicity against KATO-III gastric carcinoma cells; assay type: functional, cell-based; settings: Homo sapiens
[6] = system: L1210; assay: Compound was evaluated for cytotoxicity against L1210 leukemia cells; assay type: functional, cell-based; settings: Mus musculus
[7] = system: P388; assay: Percentage of the median survival time of P388 leukemic mice (T) at intraperitoneal administration of 6.25 mg/kg dose to that of controls (C); Toxic; assay type: functional, organism-based; design: dose 6.25 mg/kg; settings: Mus musculus
[8] = system: B16; assay: Compound was evaluated for percent tumor volume against B16 melanoma in mice (T) at 1.6 mg/kg intravenous administration after 8 days ot that of control (C); assay type: functional, Mus musculus
[9] = system: B16; assay: Compound was evaluated for percent tumor volume against B16 melanoma in mice (T) at 1.6 mg/kg intravenous administration after 13 days ot that of control (C); assay type: functional, Mus musculus
[10] = system: Colon 26; assay: Compound was evaluated for percent tumor volume against colon 26 cells in mice (T) at a dose of 1.6 mg/kg intravenous administration after 10 days ot that of control (C); assay type: functional, Mus musculus
[11] = system: B16; assay: Compound was evaluated for percent tumor volume against B16 melanoma in mice (T) at 3.13 mg/kg intravenous administration after 11 days ot that of control (C); assay type: functional, Mus musculus
[12] = system: Colon 26; assay: Compound was evaluated for percent tumor volume against colon 26 cells in mice (T) at a dose of 3.13 mg/kg intravenous administration after 12 days ot that of control (C); assay type: functional, Mus musculus
[13] = system: Colon 26; assay: Compound was evaluated for percent tumor volume against colon 26 cells in mice (T) at a dose of 0.8 mg/kg intravenous administration after 8 days ot that of control (C); assay type: functional, Mus musculus
[14] = system: Colon 26; assay: Compound was evaluated for percent tumor volume against colon 26 cells in mice (T) at a dose of 3.13 mg/kg intravenous administration after 10 days ot that of control (C); assay type: functional, Mus musculus
[15] = system: Colon 26; assay: Compound was evaluated for percent tumor volume against colon 26 cells in mice (T) at a dose of 0.8 mg/kg intravenous administration after 10 days ot that of control (C); assay type: functional, Mus musculus
[16] = system: B16; assay: Compound was evaluated for percent tumor volume against B16 melanoma in mice (T) at 1.6 mg/kg intravenous administration after 11 days ot that of control (C); assay type: functional, Mus musculus
[17] = system: Colon 26; assay: Compound was evaluated for percent tumor volume against colon 26 cells in mice (T) at a dose of 0.8 mg/kg intravenous administration after 12 days ot that of control (C); assay type: functional, Mus musculus
[18] = system: Colon 26; assay: Compound was evaluated for percent tumor volume against colon 26 cells in mice (T) at a dose of 3.13 mg/kg intravenous administration after 8 days ot that of control (C); assay type: functional, Mus musculus
[19] = system: Colon 26; assay: Compound was evaluated for percent tumor volume against colon 26 cells in mice (T) at a dose of 1.6 mg/kg intravenous administration after 12 days ot that of control (C); assay type: functional, Mus musculus
[20] = system: B16; assay: Compound was evaluated for percent tumor volume against B16 melanoma in mice (T) at 3.13 mg/kg intravenous administration after 8 days ot that of control (C); assay type: functional, Mus musculus
[21] = system: Colon 26; assay: Compound was evaluated for percent tumor volume against colon 26 cells in mice (T) at a dose of 1.6 mg/kg intravenous administration after 8 days ot that of control (C); assay type: functional, Mus musculus
[22] = system: Colon 26; assay: Compound was evaluated for percent tumor volume against colon 26 cells in mice (T) at a dose of 3.13 mg/kg intravenous administration after 12 days ot that of control (C), (Number of mice surviving / number of mice tested); T/C, 6/8; assay type: functional, Mus musculus
[23] = system: Colon 26; assay: Compound was evaluated for percent tumor volume against colon 26 cells in mice (T) at a dose of 6.25 mg/kg intravenous administration after 12 days ot that of control (C), (Number of mice surviving / number of mice tested); T/C, 7/8; assay type: functional, Mus musculus
[24] = system: Colon 26; assay: Compound was evaluated for percent tumor volume against colon 26 cells in mice (T) at a dose of 6.25 mg/kg intravenous administration after 10 days ot that of control (C); assay type: functional, Mus musculus
[25] = system: Colon 26; assay: Compound was evaluated for percent tumor volume against colon 26 cells in mice (T) at a dose of 3.13 mg/kg intravenous administration after 10 days ot that of control (C), (Number of mice surviving / number of mice tested; T/C), 7/8; assay type: functional, Mus musculus
[26] = system: B16; assay: Compound was evaluated for percent tumor volume against B16 melanoma in mice (T) at 6.25 mg/kg intravenous administration after 11 days ot that of control (C); assay type: functional, Mus musculus
[27] = system: B16; assay: Compound was evaluated for percent tumor volume against B16 melanoma in mice (T) at 3.13 mg/kg intravenous administration after 13 days ot that of control (C); assay type: functional, Mus musculus
[28] = system: Colon 26; assay: Compound was evaluated for percent tumor volume against colon 26 cells in mice (T) at a dose of 6.25 mg/kg intravenous administration after 8 days ot that of control (C); assay type: functional, Mus musculus
[29] = system: B16; assay: Compound was evaluated for percent tumor volume against B16 melanoma in mice (T) at 6.25 mg/kg intravenous administration after 8 days ot that of control (C); assay type: functional, Mus musculus

COc1ccc(C[C@H]2C(=O)N[C@@H](C)C(=O)N(C)[C@H]3Cc4cccc(c4)Oc4cc(ccc4OCCN(Cc4ccccc4)Cc4ccccc4)C[C@@H](C(=O)N[C@H](C)C(=O)N[C@@H](C)C(=O)N2C)N(C)C3=O)cc1 [listing 1 of 2 here]
IC50 [1]: 59 ng/mL (≈ 0.0602 µM)

CCN(CC)CCOc1ccc2cc1Oc1cccc(c1)C[C@H]1C(=O)N(C)[C@@H](C2)C(=O)N[C@H](C)C(=O)N[C@@H](C)C(=O)N(C)[C@@H](Cc2ccc(OC)cc2)C(=O)N[C@@H](C)C(=O)N1C [listing 1 of 2 here]
T/C [2]: 136% | T/C [3]: 124% | T/C [4]: 116%

COc1ccc(C[C@H]2C(=O)N[C@@H](C)C(=O)N(C)[C@H]3Cc4cccc(c4)Oc4cc(ccc4OC)C[C@@H](C(=O)N[C@H](C)C(=O)N[C@@H](C)C(=O)N2C)N(C)C3=O)cc1
IC50 [5]: 2.9 ng/mL (≈ 0.00376 µM) | IC50 [1]: 2.3 ng/mL (≈ 0.00298 µM) | IC50 [6]: 1.2 ng/mL (≈ 0.00156 µM)

COc1ccc(C[C@H]2C(=O)N[C@H](C)C(=O)N(C)[C@H]3Cc4cccc(c4)Oc4cc(ccc4OC)C[C@@H](C(=O)N[C@H](C)C(=O)N[C@@H](C)C(=O)N2C)N(C)C3=O)cc1
T/C [7]: Toxic

COc1ccc(C[C@H]2C(=O)N[C@@H](C)C(=O)N(C)[C@H]3Cc4cccc(c4)Oc4cc(ccc4OCCN(C(C)C)C(C)C)C[C@@H](C(=O)N[C@H](C)C(=O)N[C@@H](C)C(=O)N2C)N(C)C3=O)cc1 [listing 1 of 2 here]
T/C [2]: 170% | T/C [8]: 55.9% | T/C [9]: 69.7% | T/C [10]: 57.1% | T/C [11]: 32.1% | T/C [3]: 157% | T/C [12]: 99.6% | T/C [13]: 42.1% | T/C [14]: 38.5% | T/C [15]: 83.4% | T/C [16]: 43.3% | T/C [17]: 136.3% | T/C [18]: 34.5% | T/C [19]: 143.1% | T/C [4]: 151% | T/C ([20]; 3.13 mg/kg): 57.5% and 32.1% | T/C [21]: 41.5%

COc1ccc(C[C@H]2C(=O)N[C@@H](C)C(=O)N(C)[C@H]3Cc4cccc(c4)Oc4cc(ccc4OCCN4CCCC4)C[C@@H](C(=O)N[C@H](C)C(=O)N[C@@H](C)C(=O)N2C)N(C)C3=O)cc1 [listing 1 of 2 here]
T/C [2]: 134% | T/C [3]: 124% | T/C [4]: 112%

COc1ccc(C[C@H]2C(=O)N[C@@H](C)C(=O)N(C)[C@H]3Cc4cccc(c4)Oc4cc(ccc4OCCN4CCCCCC4)C[C@@H](C(=O)N[C@H](C)C(=O)N[C@@H](C)C(=O)N2C)N(C)C3=O)cc1 [listing 1 of 2 here]
T/C [2]: 137% | T/C [3]: 123% | T/C [4]: 112%

COc1ccc(C[C@H]2C(=O)N[C@@H](C)C(=O)N(C)[C@H]3Cc4cccc(c4)Oc4cc(ccc4OCCN(C)C)C[C@@H](C(=O)N[C@H](C)C(=O)N[C@@H](C)C(=O)N2C)N(C)C3=O)cc1 [listing 1 of 2 here]
T/C [2]: 153% | T/C [10]: 76.7% | T/C [11]: 67.9% | T/C [22]: 101.5% | T/C [23]: 125.5% | T/C [24]: 70% | T/C [3]: 145% | T/C [25]: 55.8% | T/C [26]: 40.8% | T/C [27]: 140.5% | T/C [18]: 54.4% | T/C [19]: 102.5% | T/C [4]: 127% | T/C [20]: 77.2% | T/C [28]: 48.1% | T/C [29]: 57% and 40.8% | T/C [21]: 84.1%

COc1ccc(C[C@H]2C(=O)N[C@@H](C)C(=O)N(C)[C@H]3Cc4cccc(c4)Oc4cc(ccc4OCCN4CCCCC4)C[C@@H](C(=O)N[C@H](C)C(=O)N[C@@H](C)C(=O)N2C)N(C)C3=O)cc1 [listing 1 of 2 here]
IC50 [1]: 8.7 ng/mL (≈ 0.01 µM)

COc1ccc(C[C@H]2C(=O)N[C@@H](C)C(=O)N(C)[C@H]3Cc4cccc(c4)Oc4cc(ccc4OCCN4CCCCC4)C[C@@H](C(=O)N[C@H](C)C(=O)N[C@@H](C)C(=O)N2C)N(C)C3=O)cc1 [listing 2 of 2 here]
T/C [2]: 127% | T/C [3]: 123% | T/C [4]: 115%

COc1ccc(C[C@H]2C(=O)N[C@@H](C)C(=O)N(C)[C@H]3Cc4cccc(c4)Oc4cc(ccc4OCCN(C(C)C)C(C)C)C[C@@H](C(=O)N[C@H](C)C(=O)N[C@@H](C)C(=O)N2C)N(C)C3=O)cc1 [listing 2 of 2 here]
IC50 [5]: 1.5 ng/mL (≈ 0.0017 µM) | IC50 [1]: 4.6 ng/mL (≈ 0.0052 µM) | IC50 [6]: 4.5 ng/mL (≈ 0.00509 µM)

COc1ccc(C[C@H]2C(=O)N[C@@H](C)C(=O)N(C)[C@H]3Cc4cccc(c4)Oc4cc(ccc4OCCN(Cc4ccccc4)Cc4ccccc4)C[C@@H](C(=O)N[C@H](C)C(=O)N[C@@H](C)C(=O)N2C)N(C)C3=O)cc1 [listing 2 of 2 here]
Activity [2]: 134% | Activity [3]: 119% | Activity [4]: 105%

CCN(CC)CCOc1ccc2cc1Oc1cccc(c1)C[C@H]1C(=O)N(C)[C@@H](C2)C(=O)N[C@H](C)C(=O)N[C@@H](C)C(=O)N(C)[C@@H](Cc2ccc(OC)cc2)C(=O)N[C@@H](C)C(=O)N1C [listing 2 of 2 here]
IC50 [1]: 10 ng/mL (≈ 0.0117 µM)

COc1ccc(C[C@H]2C(=O)N[C@@H](C)C(=O)N(C)[C@H]3Cc4cccc(c4)Oc4cc(ccc4OCCN4CCCC4)C[C@@H](C(=O)N[C@H](C)C(=O)N[C@@H](C)C(=O)N2C)N(C)C3=O)cc1 [listing 2 of 2 here]
IC50 [1]: 19 ng/mL (≈ 0.0222 µM)

CCN(CCOc1ccc2cc1Oc1cccc(c1)C[C@H]1C(=O)N(C)[C@@H](C2)C(=O)N[C@H](C)C(=O)N[C@@H](C)C(=O)N(C)[C@@H](Cc2ccc(OC)cc2)C(=O)N[C@@H](C)C(=O)N1C)c1ccccc1 [listing 1 of 2 here]
T/C [2]: 150% | T/C [3]: 133% | T/C [4]: 116%

COc1ccc(C[C@H]2C(=O)N[C@@H](C)C(=O)N(C)[C@H]3Cc4cccc(c4)Oc4cc(ccc4OCCN4CCCCCC4)C[C@@H](C(=O)N[C@H](C)C(=O)N[C@@H](C)C(=O)N2C)N(C)C3=O)cc1 [listing 2 of 2 here]
IC50 [1]: 7.6 ng/mL (≈ 0.00862 µM)

COc1ccc(C[C@H]2C(=O)N[C@@H](C)C(=O)N(C)[C@H]3Cc4cccc(c4)Oc4cc(ccc4OCCN(C)C)C[C@@H](C(=O)N[C@H](C)C(=O)N[C@@H](C)C(=O)N2C)N(C)C3=O)cc1 [listing 2 of 2 here]
IC50 [5]: 79 ng/mL (≈ 0.0954 µM) | IC50 [1]: 25 ng/mL (≈ 0.0302 µM) | IC50 [6]: 18 ng/mL (≈ 0.0217 µM)

CCN(CCOc1ccc2cc1Oc1cccc(c1)C[C@H]1C(=O)N(C)[C@@H](C2)C(=O)N[C@H](C)C(=O)N[C@@H](C)C(=O)N(C)[C@@H](Cc2ccc(OC)cc2)C(=O)N[C@@H](C)C(=O)N1C)c1ccccc1 [listing 2 of 2 here]
IC50 [1]: 9.9 ng/mL (≈ 0.011 µM)
